Experimental findings from patent US8134015B2, “Compound inhibiting in vivo phosphorous transport and medicine containing the same” (Kyowa Hakko Kirin Co., Ltd., priority 2003, dated 2012) are described below.

Counter-ions that a name gives are not always drawn.

The first experiment deals with T1, rat NaPi-2b (Rattus norvegicus, UniProt Q9JJ09).
T1 construct: expressed in transfected cells; host or cells: Xenopus oocytes injected with cRNA
T1 sequence (Q9JJ09 1-695): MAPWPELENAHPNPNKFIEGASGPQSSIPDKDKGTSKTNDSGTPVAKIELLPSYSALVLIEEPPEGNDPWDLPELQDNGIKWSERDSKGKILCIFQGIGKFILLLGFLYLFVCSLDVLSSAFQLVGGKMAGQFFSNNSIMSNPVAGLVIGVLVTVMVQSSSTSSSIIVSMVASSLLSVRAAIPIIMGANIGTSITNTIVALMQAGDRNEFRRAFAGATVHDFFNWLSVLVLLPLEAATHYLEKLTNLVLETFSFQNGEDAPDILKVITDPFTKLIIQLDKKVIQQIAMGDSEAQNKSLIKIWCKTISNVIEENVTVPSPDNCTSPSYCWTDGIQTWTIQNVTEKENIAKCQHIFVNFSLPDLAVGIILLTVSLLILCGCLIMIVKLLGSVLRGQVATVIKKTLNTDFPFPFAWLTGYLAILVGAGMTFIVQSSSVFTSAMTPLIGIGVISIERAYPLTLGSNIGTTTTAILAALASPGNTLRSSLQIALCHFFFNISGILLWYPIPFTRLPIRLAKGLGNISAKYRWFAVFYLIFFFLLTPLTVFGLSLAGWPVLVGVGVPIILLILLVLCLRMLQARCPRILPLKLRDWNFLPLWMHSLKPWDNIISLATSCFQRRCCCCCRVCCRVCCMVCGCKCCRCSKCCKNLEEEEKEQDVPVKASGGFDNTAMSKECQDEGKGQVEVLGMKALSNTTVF
Briefly: Sodium-dependent phosphate uptake of Xenopus oocytes which expressed NaPi-2b (32P). It is filed as cell-based. Conditions: Xenopus oocytes expressing rat NaPi-2b, 32P radioactive phosphorus; read-out: IC50 (phosphate uptake inhibitory activity). A digest of the protocol:
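Oocytes injected with rat NaPi-2b cRNA, cultured 2 d, then 32P uptake measured with compound. Values: % inhibition at 300 and 100 μM, both from one inhibition curve.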
Consider `CCN(CC)CCN(C)Cc1cccc(C(=O)Nc2sc3c(c2C(=O)N/N=C/c2ccc(OC(F)(F)F)cc2)CCCC3)c1` [Compound 1001, 3-{[(2-Diethylamino-ethyl)-methyl-amino]-methyl}-N-[3-(4-trifluoromethoxy-benzylidene-hydrazinocarbonyl)-4,5,6,7-tetrahydro-benzo[b]thiophen-2-yl]-benzamide], for which the IC50 was less than 3000 nM.

Regarding `Cc1csc(NC(=O)c2cccc(CSCCCO)c2)c1C(=O)N/N=C/c1ccc(F)cc1` [Compound 559, N-[3-(4-Fluoro-benzylidene-hydrazinocarbonyl)-4-methyl-thiophen-2-yl]-3-(3-hydroxy-propylsulfanylmethyl)-benzamide], the IC50 turned out to be 1260 nM.

With `Cc1ccc(/C=N/NC(=O)c2cc(N3CCOCC3)ccc2NC(=O)c2cccc(CSCCO)c2)cc1C` [Compound 1064, N-[2-(3,4-Dimethyl-benzylidene-hydrazinocarbonyl)-4-morpholin-4-yl-phenyl]-3-(2-hydroxy-ethylsulfanylmethyl)-benzamide], the IC50 was less than 1000 nM.

Regarding `Cc1ccc(/C=N/NC(=O)c2cc(N3CCSCC3)ccc2NC(=O)c2cccc(CSCCO)c2)cc1C` [Compound 926, N-[2-(3,4-Dimethyl-benzylidene-hydrazinocarbonyl)-4-thiomorpholin-4-yl-phenyl]-3-(2-hydroxy-ethylsulfanylmethyl)-benzamide], the IC50 is less than 1000 nM.

On to `Cc1ccc(/C=N/NC(=O)c2cscc2NC(=O)c2cccc(CN(CC(C)O)CC(C)O)c2)cc1` (stereo not drawn) [Compound 976, 3-{[Bis-(2-hydroxy-propyl)-amino]-methyl}-N-[4-(4-methyl-benzylidene-hydrazinocarbonyl)-thiophen-3-yl]-benzamide], for which the concentration for half-maximal inhibition (IC50) amounted to 10700 nM.

Consider `O=C(Nc1ccccc1C(=O)N/N=C/c1cccc(F)c1)c1ccccn1` [Compound 505, Pyridin-2-carboxylic acid [2-(3-fluoro-benzylidene-hydrazinocarbonyl)-phenyl]-amide], for which the IC50 was found to be 1210 nM.

For the compound `Cc1ccc(/C=N/NC(=O)c2c(NC(=O)c3cccc(CN4CCN(CCO)CC4)c3)sc3c2CCCC3)cc1` [Compound 622, 3-[4-(2-Hydroxy-ethyl)-piperazin-1-ylmethyl]-N-[3-(4-methyl-benzylidene-hydrazinocarbonyl)-4,5,6,7-tetrahydro-benzo-[b]thiophen-2-yl]-benzamide], the IC50 was less than 3000 nM.

For `Cc1ccc(/C=N/NC(=O)c2ccccc2NC(=O)c2ccncc2)cc1` [Compound 203, N-[2-(4-Methyl-benzylidene-hydrazinocarbonyl)-phenyl]-isonicotinamide hydrochloride], the IC50 was less than 3000 nM.

Take `O=C(Nc1sc2c(c1C(=O)N/N=C/c1ccc(Cl)c(C(F)(F)F)c1)CCC2)c1cccc(CN2CCC(CO)CC2)c1` [Compound 820, N-[3-(4-Chloro-3-trifluoromethyl-benzylidene-hydrazinocarbonyl)-5,6-dihydro-4H-cyclopenta[b]thiophen-2-yl]-3-(4-hydroxymethyl-piperidin-1-ylmethyl)-benzamide]: the IC50 was 17900 nM.

With `O=C(Nc1ccc(Br)cc1C(=O)N/N=C/c1ccc(F)cc1)c1ccc(CN2CCC(CO)CC2)cc1` [Compound 335, N-[4-Bromo-2-(4-fluoro-benzylidene-hydrazinocarbonyl)-phenyl]-4-(4-hydroxymethyl-piperidin-1-ylmethyl)-benzamide], the IC50 was found to be 5860 nM.

For the compound `Cc1ccc(/C=N/NC(=O)c2cc(Br)ccc2NC(=O)c2cccs2)cc1C` [Compound 161, Thiophene-2-carboxylic acid [4-bromo-2-(3,4-dimethyl-benzylidene-hydrazinocarbonyl)-phenyl]-amide], the IC50 worked out at 960 nM.

On to `Cc1cccc(/C=N/NC(=O)c2cc(Cl)ccc2NC(=O)c2cccc(CN3CCC(N4CCCCC4)CC3)c2)c1` [Compound 370, 3-[1,4′]Bipiperidinyl-1′-ylmethyl-N-[4-chloro-2-(3-methyl-benzylidene-hydrazinocarbonyl)-phenyl]-benzamide], for which the IC50 turned out to be 1860 nM.

As for `COc1ccc(/C=N/NC(=O)c2cc(I)ccc2NC(=O)c2cccc(CN3CCC(N4CCCCC4)CC3)c2)cc1` [Compound 489, 3-[1,4′]Bipiperidinyl-1′-ylmethyl-N-[4-iodo-2-(4-methoxy-benzylidene-hydrazinocarbonyl)-phenyl]-benzamide], the IC50 was less than 3000 nM.

With `Cc1ccc(/C=N/NC(=O)c2cc(Cl)ccc2NC(=O)c2cccc(CN3CCC(N4CCCCC4)CC3)c2)cc1` [Compound 371, 3-[1,4′]Bipiperidinyl-1′-ylmethyl-N-[4-chloro-2-(4-methyl-benzylidene-hydrazinocarbonyl)-phenyl]-benzamide], the IC50 worked out at 2540 nM.

Consider `Cc1csc(NC(=O)c2cccc(CSc3nc[nH]n3)c2)c1C(=O)N/N=C/c1ccc(F)cc1` [Compound 553, N-[3-(4-Fluoro-benzylidene-hydrazinocarbonyl)-4-methyl-thiophen-2-yl]-3-(1H-[1,2,4]triazol-3-ylsulfanylmethyl)-benzamide], for which the IC50 stood at 2800 nM.

As for `Cc1csc(NC(=O)c2cccc(CN(CCO)CCO)c2)c1C(=O)N/N=C/c1ccc(Cl)c(C(F)(F)F)c1` [Compound 790, 3-{[Bis-(2-hydroxy-ethyl)-amino]-methyl}-N-[3-(4-chloro-3-trifluoromethyl-benzylidene-hydrazinocarbonyl)-4-methyl-thiophen-2-yl]-benzamide], the IC50 stood at 4320 nM.

Turning to `Cc1cccc(/C=N/NC(=O)c2cc(Br)ccc2NC(=O)c2cccc(CSc3nc[nH]n3)c2)c1` [Compound 269, N-[4-Bromo-2-(3-methyl-benzylidene-hydrazinocarbonyl)-phenyl]-3-(1H-[1,2,4]triazol-3-ylsulfanylmethyl)-benzamide], the IC50 amounted to 2190 nM.

`CCOCCN(CCOCC)Cc1ccc(C(=O)Nc2ccc(Br)cc2C(=O)N/N=C/c2cccc(C)c2)cc1` [Compound 735, 4-{[Bis-(2-ethoxy-ethyl)-amino]-methyl}-N-[4-bromo-2-(3-methyl-benzylidene-hydrazinocarbonyl)-phenyl]-benzamide]: the IC50 is 18300 nM.

Consider `COc1ccc(/C=N/NC(=O)c2cc(N3CCSCC3)ccc2NC(=O)c2cccc(CSCCO)c2)cc1` [Compound 928, 3-(2-Hydroxy-ethylsulfanylmethyl)-N-[2-(4-methoxy-benzylidene-hydrazinocarbonyl)-4-thiomorpholin-4-yl-phenyl]-benzamide], for which the IC50 is less than 1000 nM.

For the compound `Cc1ccc(/C=N/NC(=O)c2cc(Cl)ccc2NC(=O)c2ccncc2)cc1` [Compound 192, N-[4-Chloro-2-(4-methyl-benzylidene-hydrazinocarbonyl)-phenyl]-isonicotinamide], the IC50 stood at 23100 nM.

As for `Cc1ccc(/C=N/NC(=O)c2cc(N3CCCC3)ccc2NC(=O)c2cccc(CSCCO)c2)cc1C` [Compound 919, N-[2-(3,4-Dimethyl-benzylidene-hydrazinocarbonyl)-4-pyrrolidin-1-yl-phenyl]-3-(2-hydroxy-ethylsulfanylmethyl)-benzamide], the 50% inhibitory concentration (IC50) is 310 nM.

In the case of `CN(C)CCn1nnnc1SCc1cccc(C(=O)Nc2ccc(Cl)cc2C(=O)N/N=C/c2cccc(O)c2)c1` [Compound 470, N-[4-Chloro-2-(3-hydroxy-benzylidene-hydrazinocarbonyl)-phenyl]-3-[1-(2-dimethylamino-ethyl)-1H-tetrazol-5-ylsulfanylmethyl]-benzamide], the IC50 was 23500 nM.

Staying with this experiment, now noted: phosphate uptake, oocytes expressing rat NaPi-2b; 300 μM, determined from inhibition curve.
On to `Cc1csc(NC(=O)c2cccc(CSCCS(=O)(=O)O)c2)c1C(=O)N/N=C/c1ccc(Cl)c(C(F)(F)F)c1` [Compound 784, 2-{3-[3-(4-Chloro-3-trifluoromethyl-benzylidene-hydrazinocarbonyl)-4-methyl-thiophen-2-ylcarbamoyl]-benzylsulfanyl}-ethanesulfonic acid], for which the inhibition at 300 µM was 88.5%.

The compound `CCN(CC)Cc1cccc(C(=O)Nc2ccsc2C(=O)N/N=C/c2cccc(F)c2)c1` [Compound 995, 3-Diethylaminomethyl-N-[2-(3-fluoro-benzylidene-hydrazinocarbonyl)-thiophen-3-yl]-benzamide] came in with an inhibition at 300 µM of 42.1%.

The compound `Cc1csc(C(=O)N/N=C/c2ccc(Cl)c(C(F)(F)F)c2)c1NC(=O)c1cccc(CN(CC(C)O)CC(C)O)c1` (stereo not drawn) [Compound 707, 3-{[Bis-(2-hydroxy-propyl)-amino]-methyl}-N-[2-(4-chloro-3-trifluoromethyl-benzylidene-hydrazinocarbonyl)-4-methyl-thiophen-3-yl]-benzamide] displayed an inhibition at 300 µM of 41.2%.

Take `COc1ccc(C(=O)Nc2ccc(Br)cc2C(=O)NNCc2ccc(C)c(C)c2)cc1OC` [Compound 548, N-{4-Bromo-2-[N′-(3,4-dimethyl-benzyl)-hydrazinocarbonyl]-phenyl}-3,4-dimethoxy-benzamide]: the inhibition at 300 µM worked out at 85.7%.

`Cc1ccc(/C=N/NC(=O)c2ccsc2NC(=O)c2cccc(CN(CC(C)O)CC(C)O)c2)cc1C` (stereo not drawn) [Compound 670, 3-{[Bis-(2-hydroxy-propyl)-amino]-methyl}-N-[3-(3,4-dimethyl-benzylidene-hydrazinocarbonyl)-thiophen-2-yl]-benzamide] showed an inhibition at 300 µM of 70.2%.
